Measured values from PubChem BioAssay (NCI).
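Method: 48-hour compound exposure of cells in 96-well plates, five concentrations, linear interpolation of endpoints. TGI denotes the concentration required for complete inhibition of growth.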

Legend:
Test in all cases: inhibition of tumour cell growth, NCI panel, 48 h
NCI/ADR-RES ovarian = system: NCI/ADR-RES ovarian
EKVX NSCLC = system: EKVX NSCLC
TK-10 renal = system: TK-10 renal
HT29 colon = system: HT29 colon
PC-3 prostate = system: PC-3 prostate
SNB-19 CNS = system: SNB-19 CNS
A498 renal = system: A498 renal
SK-MEL-5 melanoma = system: SK-MEL-5 melanoma
SF-268 CNS = system: SF-268 CNS

Row | SMILES | TGI (NCI/ADR-RES ovarian) | TGI (EKVX NSCLC) | TGI (TK-10 renal) | TGI (HT29 colon) | TGI (PC-3 prostate) | TGI (SNB-19 CNS) | TGI (A498 renal) | TGI (SK-MEL-5 melanoma) | TGI (SF-268 CNS)
1 | COc1ccc2c(cnc3c4cc(OC)c(OC)cc4ccc23)c1 | > 100 µM | > 100 µM | > 100 µM | > 100 µM | > 100 µM | > 100 µM | > 100 µM | > 100 µM | > 100 µM
2 | CCC(=O)ONC(=O)Cn1ccc([N+](=O)[O-])n1 | > 100 µM | > 100 µM | > 100 µM | > 100 µM | > 100 µM | > 100 µM | – | > 100 µM | > 100 µM
3 | Cn1c2ccccc2c(=O)c2cccc(C(=O)NC(CCCN=C(N)N)C(=O)O)c21 (centres undefined) | 96 µM | > 100 µM | > 100 µM | > 100 µM | > 100 µM | > 100 µM | – | > 100 µM | > 100 µM
4 | COc1ccc2c(c1)CCN1CCc3ccccc3CC21 (centres undefined) | > 100 µM | > 100 µM | > 100 µM | > 100 µM | > 100 µM | > 100 µM | > 100 µM | 30.2 µM | > 100 µM
5 | On1c(-c2ccccc2)nc2ccccc2c1=S | > 100 µM | > 100 µM | > 100 µM | > 100 µM | 74.2 µM | > 100 µM | > 100 µM | > 100 µM | > 100 µM
6 | COc1nc2nccnc2c(=O)n1C | > 10 µM | > 10 µM | > 10 µM | > 10 µM | > 10 µM | > 10 µM | > 10 µM | > 10 µM | > 10 µM
7 | Nc1nc(Cl)cc(NCC2(CO)CCCC2)n1 | > 100 µM | > 100 µM | > 100 µM | > 100 µM | > 100 µM | > 100 µM | > 100 µM | > 100 µM | > 100 µM
8 | CC12CCC(O)CC1CCC1C2CCC2(C)C(C(=O)CC(O)C(F)(F)F)CCC12 (centres undefined) | > 100 µM | 98.9 µM | > 100 µM | 19.6 µM | > 100 µM | 69.6 µM | 40.7 µM | > 100 µM | > 100 µM
9 | Cc1ccc(O)c(-c2cscn2)c1 | > 100 µM | > 100 µM | > 100 µM | > 100 µM | > 100 µM | > 100 µM | 70 µM | > 100 µM | –
10 | NNC(=O)CSc1nc2ccccc2c(=O)n1N | > 100 µM | > 100 µM | 40.9 µM | > 100 µM | > 100 µM | 44.6 µM | > 100 µM | > 100 µM | > 100 µM
11 | CCOc1ccc(/C=C2/C(=O)N=C(NC(C)=O)N2C)cc1 | > 100 µM | > 100 µM | > 100 µM | > 100 µM | – | > 100 µM | > 100 µM | > 100 µM | > 100 µM
12 | CCC1(C)C=Cc2c(cc(O)c3c(=O)c4ccccc4n(C)c23)O1 (centres undefined) | > 10 µM | > 10 µM | > 10 µM | > 10 µM | > 10 µM | > 10 µM | > 10 µM | > 10 µM | > 10 µM
13 | CC(=O)OCC1OC(n2c3c(cc(C#N)c2=S)CCCCC3)C(OC(C)=O)C(OC(C)=O)C1OC(C)=O (centres undefined) | > 100 µM | – | > 100 µM | > 100 µM | > 100 µM | > 100 µM | > 100 µM | > 100 µM | > 100 µM
14 | COc1ccc(/C=C2\N=C(SC)NC2=O)cc1 | > 100 µM | > 100 µM | > 100 µM | > 100 µM | > 100 µM | > 100 µM | – | > 100 µM | > 100 µM
15 | O=c1oc2ccc([N+](=O)[O-])cc2c(Nc2ccc3c(c2)Oc2ccccc2O3)c1[N+](=O)[O-] | > 100 µM | > 100 µM | > 100 µM | > 100 µM | 55.4 µM | > 100 µM | – | 76 µM | > 100 µM
16 | CC(C(O)Cc1ccccc1)N(C)N=Nc1ccc([N+](=O)[O-])cc1 (centres undefined) | 39.9 µM | 73.2 µM | 47.7 µM | 37.2 µM | 40.5 µM | > 100 µM | – | 34.7 µM | 47.3 µM
17 | CCOC(=O)C1C2CCC1CC(=NNc1ccc([N+](=O)[O-])cc1[N+](=O)[O-])C2 (centres undefined) | > 50 µM | > 50 µM | > 50 µM | > 50 µM | > 50 µM | > 50 µM | – | > 50 µM | > 50 µM
18 | CC(C)=CCNc1ncnc2c1ncn2CCC#N | > 100 µM | – | > 100 µM | > 100 µM | > 100 µM | > 100 µM | > 100 µM | > 100 µM | > 100 µM
19 | Cn1c2ccccc2c(=NNc2cccc(C(=O)O)c2)c2ccccc21 | 67.7 µM | 28.7 µM | 59.2 µM | 14.7 µM | 23.6 µM | > 100 µM | – | 28.9 µM | 39 µM
20 | CC1=C(CO)C(=O)O[C@@H]([C@@H](CO)[C@H]2CCC3C4C[C@@H](O)[C@@]5(O)CC=CC(=O)[C@]5(C)C4CC[C@@]32C)C1 (some centres undefined) | > 100 µM | > 100 µM | > 100 µM | > 100 µM | – | > 100 µM | > 100 µM | > 100 µM | > 100 µM
21 | CN1[C@@H]2C[C@@H](OC(=O)[C@H](CO)c3ccccc3)C[C@H]1[C@@H]1O[C@@H]12 | > 100 µM | > 100 µM | > 100 µM | > 100 µM | > 100 µM | – | > 100 µM | > 100 µM | –
22 | O=C1O[C@H](c2ccc3c(c2)OCO3)[C@H]2CO[C@@H](c3ccc4c(c3)OCO4)[C@@H]12 | > 100 µM | > 100 µM | > 100 µM | > 100 µM | > 100 µM | > 100 µM | – | > 100 µM | > 100 µM
23 | COc1cc(OC)c(C2c3cc4c(cc3OC(N3CCCC3)C2C)OCO4)c(OC)c1 (centres undefined) | 67 µM | > 100 µM | > 100 µM | 28.7 µM | 49 µM | 51.1 µM | – | 29.4 µM | 40.3 µM
24 | O=C1/C(=C/c2ccc(Cl)cc2)CSc2ccccc21 | 34.5 µM | – | > 100 µM | 49.6 µM | 44.5 µM | 39.4 µM | > 100 µM | 46 µM | 73 µM
